According to PMC10746753 (Pharmaceutical Research, 2023):

Test system: Caki-1 xenografts
Experiment: Anti-tumor efficacy study EFF-02
Format: in vivo, CD1 nu/nu mice
Conditions: p.o., 6–7 weeks
Procedure: For all in vivo studies, human Caki-1 renal tumor cells (ATCC: HTB-46, RRID: CVCL_0234; 5 million in 100 µL PBS w/o Ca/Mg, Matrigel [1:1]) were subcutaneously inoculated into the right flank of female 5–6-week-old CD-1 nude mice provided by Charles River Laboratories (CRL), Sulzfeld, Germany. Tumor growth was observed over time by measuring tumor length (L) and width (W) twice weekly using calipers. Tumor volume was calculated using the formula LxW^2/2. Data were collected in Study Advantage™ (data collection system).
Anti-tumor efficacy study. […] PD analysis was not performed in this study.

For O=C(NCc1cc(F)cc(F)c1)[C@@]1(O)CCN(c2ccc3[nH]ccc3c2)C1=O [M8891], the minimal efficacious dose was 25 mg/kg BID.
